Laboratory results as given in article PMC11231141, “Ube3a unsilencer for the potential treatment of Angelman syndrome” (Nature Communications, 2024).
Where two headings read alike, the source gives them in different places.

Legend:
[1] = tested on: Pantr1, Airn; test: quantitative RT-PCR of antisense lncRNA transcripts in cultured mouse neurons; type: cell-based; settings: 1 µM (S)-PHA533533 or 0.3 µM topotecan, 72 h, vs DMSO
Text: (§1) […]. […] […]. […] […]. […] […].

[2] = target: T1, TOP1 (Homo sapiens, UniProt P11387); test: TOP1-mediated DNA relaxation assay; type: biochemical; settings: 3 μM topotecan; increasing concentrations of (S)- and (R)-PHA533533; vs DMSO
T1 construct: purchased TopoGEN
T1 sequence (P11387 1-765): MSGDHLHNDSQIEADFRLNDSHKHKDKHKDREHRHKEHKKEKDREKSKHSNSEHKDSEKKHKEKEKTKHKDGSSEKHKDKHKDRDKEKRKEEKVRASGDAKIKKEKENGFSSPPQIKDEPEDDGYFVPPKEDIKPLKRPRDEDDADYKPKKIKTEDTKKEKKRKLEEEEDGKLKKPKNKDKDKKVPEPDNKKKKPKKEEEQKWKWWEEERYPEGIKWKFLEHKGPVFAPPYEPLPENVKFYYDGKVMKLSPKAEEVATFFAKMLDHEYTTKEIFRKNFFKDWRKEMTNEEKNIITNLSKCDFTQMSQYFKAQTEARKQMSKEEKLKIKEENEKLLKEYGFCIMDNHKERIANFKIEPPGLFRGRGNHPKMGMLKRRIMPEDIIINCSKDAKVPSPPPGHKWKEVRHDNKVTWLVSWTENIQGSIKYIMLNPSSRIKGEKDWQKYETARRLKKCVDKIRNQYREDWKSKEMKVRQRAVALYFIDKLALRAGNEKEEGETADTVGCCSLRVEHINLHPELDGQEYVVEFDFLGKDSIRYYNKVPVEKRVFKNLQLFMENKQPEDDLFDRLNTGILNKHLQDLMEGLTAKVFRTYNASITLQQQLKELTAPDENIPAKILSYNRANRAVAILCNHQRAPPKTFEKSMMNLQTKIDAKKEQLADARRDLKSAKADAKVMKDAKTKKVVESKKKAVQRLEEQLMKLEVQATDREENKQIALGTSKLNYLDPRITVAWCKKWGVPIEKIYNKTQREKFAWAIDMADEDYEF
Text: as §1
The Pfizer chemogenetic library and PHA533533 derivatives were provided by the Compound Transfer Program (CTP) at Pfizer. Topotecan hydrochloride salt was purchased from Cayman Chemicals (Item No. 14129). […] […]. The Human Topoisomerase I Assay Kit was purchased from TopoGEN and performed according to the manufacturer’s protocols.

[3] = tested on: UBE3A protein; test: western blot of UBE3A protein in wild-type primary neurons; type: cell-based, mouse
Description: 2’ MOE gapmer antisense oligonucleotides (ASOs) designed to target mouse Cdk2 sequence […], Cdk5 sequence […], Top1 sequence […], and scrambled […] sequence as a negative control (Integrated DNA Technologies) were formulated in water and added to cultured cortical neurons grown on 6-well plates at DIV5 at a final concentration of 10 μM. Neurons were further cultured and treated at DIV7 with vehicle (0.1% DMSO) or the indicated compounds for 72 h. For western blot analysis, neurons were washed once with PBS and then lysed using RIPA buffer (50 mM Tris-HCl pH 8.0, 150 mM NaCl, 1% NP−40, 0.5% Na-deoxycholate, 0.5% SDS) and protease inhibitor cocktail (P8340, MilliporeSigma) on ice. […]
from the paternal allele in mouse wild-type primary neurons. Primar y cortical neurons derived from wild-type (WT) mice were treated either with 0.1% DMSO as a vehicle, 1 µM ( S)-P HA53 35 33 , or 0.3 µ M to po te can for 72 hours at DIV7. Following the treatment, the relative quantity of ( a) Ube3a […]
determined through western blotting, with the data averaged across three individual experiments, depicted in (c). […]

[4] = tested on: paternal UBE3A-YFP; test: paternal UBE3A-YFP unsilencing, high-content imaging in mouse primary neurons (Ube3a m+/pYFP); type: cell-based; settings: for Emax: Neuron, highest concentration with at least 90% neurons alive, read-out: EMAX (% patUBE3A-YFP+)
Description: We aimed to identify novel unsilencers of paternal Ube3a by employing a previously developed high-content small molecule screen. This screen was performed in primary neurons derived from knock-in mice harboring a yellow fluorescent protein (YFP) fused to the paternal allele of Ube3a[25], allowing for fluorescence-based identification of the paternal allele-specific expression of UBE3A-YFP (detected by a GFP antibody enhancement) (Fig. 1a and Supplementary Table 1). We screened >2800 compounds from a Pfizer chemogenetic library, which contains small molecules selected to cover a broad spectrum of pharmacological space. We screened small molecules at 1 μM concentration and used 0.3 μM topotecan, a topoisomerase inhibitor that can downregulate the Ube3a-ATS and unsilence the paternal Ube3a, as a positive control (Fig. 1b)[10]. Small molecules that increase the UBE3A-YFP signal represent putative paternal Ube3a unsilencers.
Immunofluorescence for high-content imaging analysis was performed as previously described with slight modifications. Following drug treatment at DIV7, primary neurons were fixed at DIV10 with 4% paraformaldehyde in PBS at room temperature (RT) for 10 min. After three brief washes in PBS, neurons were permeabilized with PBS/1% Triton-X-100 at RT for 10 min, followed by blocking with PBS including 5% normal goat serum and 0.2% Triton-X-100 (NGST) at RT. […] All acquired images were analyzed by CellProfiler[48]. The mean GFP signal from each drug-treated well was normalized to the average mean GFP signal from DMSO-treated neurons. […] Fluorescent images were acquired using a Nikon Ti2 eclipse fluorescence microscope (Nikon Instruments Inc.) and analyzed using Nikon NIS-Elements software (Nikon Instruments Inc.). Antibody-enhanced UBE3A-YFP fluorescence intensities were determined from DAPI and NeuN double-positive neurons in drug-treated wells and normalized to neurons in DMSO-treated wells. The cytotoxicity of a compound was determined by calculating the percentage of neurons (DAPI and NeuN double-positive cells) alive in drug-treated wells compared to the DMSO-treated wells. For determining the effectiveness of unsilencing, the percent neurons expressing GFP signal in neurons (DAPI and NeuN double-positive cells) in drug-treated wells was thresholded such that the percent GFP positive neurons in DMSO-treated wells was set to ~5%. Concentrations where more than 10% of neurons were dead compared to DMSO-treated wells were manually removed and the last included data point was set as a maximum efficacy. Sigmoidal curve fitting for the dose-response analysis was performed using GraphPad Prism software version 8.0 (GraphPad Software).

EC50 ([4]; Mus musculus, Primary neuron, 72 h, mean ± SEM, n = 3) [nM]	SMILES	expression levels of Pantr1 or Airn [1]	inhibition of TOP1 catalytic activity to relax supercoiled DNA [2]	UBE3A protein levels in WT neurons [3]	paternal UBE3A-YFP immunofluorescent signal [4]	Emax ([4]; Mus musculus, 72 h, mean ± SEM) [%]	UBE3A protein levels in WT neurons ([3]; 1 µM (S)-PHA533533 or 0.3 µM topotecan, 72 h at DIV7)	paternal UBE3A-YFP immunofluorescent signal ([4]; 0.3 μM topotecan, 1 μM (R)- or (S)-PHA533533, 72 h)
–	C[C@H](C(=O)Nc1cc(C2CC2)[nH]n1)c1ccc(N2CCCC2=O)cc1 [(S)-PHA533533]	neither topotecan nor (S)-PHA533533 treatments changed the expression levels	had no effect on the TOP1 activity	significantly increased	high levels of paternal UBE3A-YFP	80 ± 8.41	–	–
80 ± 20	CC[C@@]1(O)C(=O)OCc2c1cc1n(c2=O)Cc2cc3c(CN(C)C)c(O)ccc3nc2-1 [Topotecan, reference compound]	neither topotecan nor (S)-PHA533533 treatments changed the expression levels	clearly inhibited TOP1 catalytic activity	–	–	66.31 ± 0.45	significantly increased	high levels of paternal UBE3A-YFP
